Data taken from patent publication US20260308158A1, “TARGETING RNAS ASSOCIATED WITH TAUOPATHIES WITH SMALL MOLECULES” (University of Florida Research Foundation, Incorporated, priority 2023, published 2026).

Assays:
[1] = system: DDPAC I17T MAPT exon 10 mini-gene luciferase reporter; assay: Luciferase reporter assay, DDPAC I17T mutant mini-gene in HeLa cells; assay type: cell-based; conditions: Homo sapiens, 48 h, 5 μM (highest dose), read-out: reduction of luciferase activity
Procedure: Luciferase-reporter Assay to Study Exon 10 Alternative Splicing. The exon 10 mini-genes, both WT and DDPAC and mutant thereof, fused to firefly luciferase, have been previously described.^18 HeLa cells were seeded in 60 mm diameter dishes and incubated for 12-16 h to 70% confluency. They were then transfected with WT, WT+I17T, DDPAC, or DDPAC+I17T luciferase reporter minigenes using JetPrime (Polyplus Transfection) per the manufacturer's recommended protocol and incubated for 4 h. After transfection, the cells were collected by trypsinization and re-seeded in 96-well plates at 0.2×10^5 cells per well, followed by treatment of compounds after 4 h. Compound stocks prepared in DMSO were diluted in growth medium and added to cells with final DMSO concentration at 0.1% (v/v). After a 48 h treatment period, the cells were washed with 1× DPBS. Each well was added with a mixture of 10 μL WST-1 reagent and 90 μL of growth medium. After incubation at 37° C. for 45 min, absorbance was measured at 450 and 690 nm. A690 as background was subtracted from A450 to obtain A450′. […] The plate was incubated at room temperature for 20 min and the luminescence was measured with a […] plate reader (1000 ms integration time). The resulted luminescence was normalized to A450′.

[2] = system: WT MAPT SRE RNA; assay: Fluorescent binding affinity, WT SRE RNA
Procedure: Fluorescent Binding Affinity Measurements. Binding assays were completed as previously described.^30 Briefly, the RNA of interest was folded in 1× Assay Buffer-1 (AB1: 8 mM Na2HPO4, pH 7.0, 185 mM NaCl, and 1 mM EDTA) by heating at 95° C. for 30 s followed by slowly cooling to room temperature. Bovine serum albumin (BSA) was then added to a final concentration of 40 μg/mL to afford 1× Assay Buffer-2 (AB2: 8 mM Na2HPO4, pH 7.0, 185 mM NaCl, 1 mM EDTA, and 40 μg/mL BSA). The RNA solution was serial diluted with 1×AB2. Then, compound of interest was added to the RNA solutions to a final concentration of 0.5 μM. […] Fluorescence intensity was measured using a Tecan Plate Reader (Gain: 100, Integration time: 40 μs). […] The change in fluorescence of the small molecule was calculated by its comparison to samples lacking RNA. Binding affinity was calculated using Equation 1, as previously described:^30
where I and I0 are the measured fluorescence intensity of the compound with or without RNA, respectively, Δε is the difference between the fluorescence intensity with the infinite concentration of RNA and the fluorescence intensity without RNA, [SM]0 and [RNA]0 are the concentrations of the small molecule (SM) and RNA, respectively, and Kd is the dissociation constant.

[3] = system: htau mice; assay: Nesting activity, htau mice; assay type: in vivo, htau mouse; conditions: scale 1-5, 100 mg/kg p.o. q.o.d.
Procedure: Nesting Activity. From Day 1 to Day 20, mice were individually housed and nesting material from the previous day was removed. An intact 3.0 g nestlet was placed within each cage. Around 15 h later, the resulting nest was photographed for qualitative scoring, and the untorn nestlet was weighed if present. All nest images and weights were analyzed by a blinded individual and based on published criteria.^43 In brief, nesting is scored on a rating scale of 1-5 where if the nestlet is over 90% intact, it is given a nestlet score is 1 (Poor; FIG. 4C). When the nestlet is partially torn but >50% remains, the nestlet score is 2; a score of 3 is assigned when 50-90% of the nestlet is torn but spread around the cage and no identifiable nest site is found (Medium; FIG. 4C). When more than 90% of the nestlet is torn and the nest is identifiable but flat, the nestlet score is 4. When a near perfect nest is built and the wall is higher than the mouse's body, it is assigned a nestlet score of 5 (Good; FIG. 4C).

[4] = system: endogenous MAPT pre-mRNA in LAN5 cells; assay: Chem-CLIP / C-Chem-CLIP in LAN5 cells; assay type: cell-based; conditions: pre-incubation
Procedure: Measuring Cellular Occupancy by Chem-CLIP and C-Chem-CLIP. LAN5 cells were grown to ~80% confluency in 100 mm diameter dishes. HeLa cells were transfected as described in the Luciferase Reporter Assay to Study Exon 10 Alternative Splicing except they were re-plated in 100 mm diameter dishes and grown to ~80% confluency (~1 day). The cells were then treated with 1.5 μM of 3 or 4 for 12 h. For C-Chem-CLIP, dilutions of competing compounds 1 or 2 were pre-incubated with cells for 12 h prior to adding 3. After addition of 3, the cells were incubated for an additional 12 h. After the treatment period, whether for Chem-CLIP or C-Chem-CLIP studies, the cells were washed with 10 mL of 1×DPBS. Ice-cold 1×DPBS (10 mL) was then added to the plate followed by irradiation with 365 nm light in a UV Stratalinker 2400 (Stratagene). Cells were scraped with a cell scraper, transferred to a 15 mL conical vial, and collected by centrifugation. Total RNA was extracted using TRIzol LS Reagent (Invitrogen) per the manufacturer's protocol. […]
RT-qPCR was performed on RNA samples before and after pull-down as described in Real-Time Quantitative PCR to enable calculation of fold enrichment in the pulled down samples. Relative fold enrichment of tau pre-mRNA was measured using Equation 3: […]

- higher affinity for the MAPT SRE than 1 ([2]; 2 vs 1): ~ 6 fold
- Kd ([2]; WT RNA, inherent fluorescence, n=3): 550 ± 110 nM
SMILES: COc1cc(N)ncc1CCCN(C)CCCn1cnc2c3ccccc3n(C)c2c1=O [Compound 2, 3-(3-((3-(6-amino-4-methoxypyridin-3-yl)propyl)(methyl)amino)propyl)-5-methyl-3,5-dihydro-4H-pyrimido[5,4-b]indol-4-one]
- inhibition at 5 µM [1]: ~15%
- nesting score at Day 2 [3]: 2.6±1.1
- nesting score at Day 20 [3]: 4.5±0.4
- competition of cross-linking of 3 [4]: competed by 1 or 2 in dose dependent fashion
